One assay concerns piglets. Briefly: Growth of piglets given feed with the additive from the 14th day after birth (Example 2). Format: in vivo, pig. On the procedure:
Using piglets born during a period of from October through November in 2000, feeding was carried out on the 14th day after their birth. […] In this case, the test was carried out using 10 head in each plot, and the average values were calculated.

Another assay deals with Large Yorkshire piglets. In words: Growth and blood examination of piglets after a single administration on the third day after birth (Example 1).
Setting [1] is: 21st day after birth, treatment on 3rd day after birth.

Description for Large Yorkshire piglets: Thereafter, usual management was carried out, feeding was started on the 14th day after birth, and body weights were measured and blood samples were collected on the 21st day after birth to carry out inspections in accordance with usual way. Also, body weights were measured at the time of shipping after about 6 months, and the number of days reaching a shipping body weight criterion of 110 kg (required days for 110 kg) was calculated. The tests were carried out using 12 animals in each plot, and the values were calculated as average values by excluding pigs which came off the test due to a disease and the like.
DG (daily gain; kg/day)=shipping body weight (kg)÷raised days (day)
Required days for 110 kg (day)=110 (kg)÷DG (kg/day)

`Cl.NCC(=O)CCC(=O)O` [ALA, 5-aminolevulinic acid hydrochloride]: in the assay with piglets (10 mg 5-aminolevulinic acid hydrochloride per 1 kg feed, with or without 10 mg ferric ammonium citrate per 1 kg feed, 10 head per plot), the “Required days for 110 kg” value is listed as 172. Besides, the “Growth (in words)” value in the assay with piglets (feed additive from 14th day after birth) was “markedly enhanced”. In addition, the “Body weight: relative value to 100 at the commencement of the test on the 3rd day after birth” value in the assay on Large Yorkshire piglets (21st day after birth) turned out to be 233%. Besides, in the assay with Large Yorkshire piglets (setting [1]), the “B12: vitamin B12 concentration in serum” value turned out to be 240 pg/mL, the “Fe: serum iron concentration in serum” value came out at 44 µg/dL, the “Hb: hemoglobin concentration in whole blood sample” value amounted to 8.5 g/dL and the “Ht: blood cell volume ratio in whole blood sample” value worked out at 30.5%. For the same compound, the “TP: total serum protein concentration in serum” value in the assay with Large Yorkshire piglets (setting [1]) was determined as 5.8 g/dL. Besides, the “Required days for 110 kg (number of days reaching shipping body weight criterion of 110 kg)” value in the assay with Large Yorkshire piglets (calculated from shipping body weight after about 6 months, 110 kg ÷ daily gain) was 183 days. In addition, the “Frequency of disease onset” value with Large Yorkshire piglets (examination about 6 months after birth, 12 animals per plot) turned out to be 0. In the assay with Large Yorkshire piglets (in and after the 21st day), the “Pigs which came off the test system due to a disease” value is given as “diseases were not found”. Also, the “Pigs which came off the test plots due to a disease and the like” value with Large Yorkshire piglets (until the 21st day after birth) is given as “not found”.
